Test results taken from publication PMC9596378, “Discovery and molecular basis of subtype-selective cyclophilin inhibitors” (Nature Chemical Biology, 2022).
“And” between values parts separate entries of the source, which are not always exact repeats. Equal entries are not always repeated. Where two headings read alike, the source gives them in different places.

Key:
Cyp40 = Cyp40 (Homo sapiens, UniProt Q08752); assay: Chymotrypsin coupled prolyl-isomerase assay;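 for Cyp40 prolyl-isomerase raw dose-response reading (Fig. 6c): observed rate constant per well from one-phase association fit in s−1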
Procedure, shortened: (§1)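 Chymotrypsin-coupled cis–trans isomerization of Suc-AAPF-AMC (5 µM) catalysed by 5 nM cyclophilin, run cold (2–3 °C) at pH 7.3 with 5 min compound preincubation.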

NKTR = biological target: T1, NKTR (Homo sapiens, UniProt P30414); assay: Chymotrypsin coupled prolyl-isomerase assay; type: biochemical;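 for NKTR prolyl-isomerase raw dose-response reading (Fig. 6c): Per-well observed rate constant from one-phase association fit in s−1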
T1 construct: NKTR (UniProtKB Entry P30414: residues 7–179); host or cells: E. coli BL21(DE3)
T1 sequence (P30414 7-179): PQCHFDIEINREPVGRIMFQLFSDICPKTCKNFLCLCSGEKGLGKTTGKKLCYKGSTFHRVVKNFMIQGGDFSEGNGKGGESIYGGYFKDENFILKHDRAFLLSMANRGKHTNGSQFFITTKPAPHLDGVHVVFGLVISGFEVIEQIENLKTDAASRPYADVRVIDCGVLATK

CypB = biological target: T2, CypB (Homo sapiens, UniProt P23284); assay: biochemical;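 for CypB prolyl-isomerase raw dose-response reading (Fig. 6c): observed rate constant per well from one-phase association fit in s−1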
T2 construct: PPIB (UniProtKB Entry P23284: residues 34–216); His6 with TEV site (2BT vector leader) (N); made in house; host or cells: E. coli BL21(DE3)
Procedure, shortened: as §1

CypG = biological target: T3, CypG (Homo sapiens, UniProt Q13427); assay: Chymotrypsin coupled prolyl-isomerase assay; type: biochemical; details: for IC50: read-out: IC50 CypG
T3 construct: PPIG (UniProtKB Entry Q13427: residues 1–179); His6 with thrombin site (pET28a LIC leader) (N); host or cells: E. coli BL21(DE3)
T3 sequence (Q13427 1-179): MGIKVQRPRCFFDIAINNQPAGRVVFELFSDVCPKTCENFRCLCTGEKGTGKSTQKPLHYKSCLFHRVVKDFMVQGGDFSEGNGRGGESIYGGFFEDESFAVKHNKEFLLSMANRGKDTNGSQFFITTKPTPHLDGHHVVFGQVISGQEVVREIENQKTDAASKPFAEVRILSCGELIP
Procedure, shortened: as §1

T2 sequence (P23284 34-216): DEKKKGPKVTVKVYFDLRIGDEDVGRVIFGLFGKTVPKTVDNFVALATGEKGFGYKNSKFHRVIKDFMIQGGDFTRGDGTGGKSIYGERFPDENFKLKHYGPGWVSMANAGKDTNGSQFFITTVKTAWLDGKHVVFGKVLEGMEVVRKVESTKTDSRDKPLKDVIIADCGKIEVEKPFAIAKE
Chain of Cyp40 (Q08752 1-183): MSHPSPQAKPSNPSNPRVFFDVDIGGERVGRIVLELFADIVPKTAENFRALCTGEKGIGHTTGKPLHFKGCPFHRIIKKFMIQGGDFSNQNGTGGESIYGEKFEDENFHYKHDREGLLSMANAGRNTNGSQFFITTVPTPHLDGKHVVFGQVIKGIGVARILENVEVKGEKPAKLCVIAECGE

NC(=O)C1CCNC(=O)C=CC(=O)N2CCCC(Cc3ccccc3)(C2)C(=O)NC(Cc2ccc(-c3ccc(C=O)c(B(O)O)c3)cc2)C(=O)NCc2ccccc2CC(=O)N1 (stereo not drawn) [Compound C3A]
Cyp40 prolyl-isomerase raw dose-response reading (Fig. 6c) (Cyp40; Dose 0.00457247 µM): 0.0614 and 0.06993 and 0.05711 | Cyp40 prolyl-isomerase raw dose-response reading (Fig. 6c) (Cyp40; Dose 0.0137174 µM): 0.05865 and 0.05903 and 0.06506 | Cyp40 prolyl-isomerase raw dose-response reading (Fig. 6c) (Cyp40; Dose 0.0411523 µM): 0.05035 and 0.06856 and 0.04615 | Cyp40 prolyl-isomerase raw dose-response reading (Fig. 6c) (Cyp40; Dose 0.123457 µM): 0.06664 and 0.05611 and 0.06364 | Cyp40 prolyl-isomerase raw dose-response reading (Fig. 6c) (Cyp40; Dose 0.37037 µM): 0.05889 and 0.05946 and 0.05108 | Cyp40 prolyl-isomerase raw dose-response reading (Fig. 6c) (Cyp40; Dose 1.11111 µM): 0.05961 and 0.05287 and 0.0489 | Cyp40 prolyl-isomerase raw dose-response reading (Fig. 6c) (Cyp40; Dose 3.33333 µM): 0.034 and 0.04378 and 0.03695 | Cyp40 prolyl-isomerase raw dose-response reading (Fig. 6c) (Cyp40; Dose 10 µM): 0.03483 and 0.03698 and 0.03412 | IC50 (Cyp40; IC50 Cyp40, Independent replicate 1): 3 ± 1 µM | IC50 (Cyp40; IC50 Cyp40, Independent replicate 2): 1.4 ± 0.5 µM | IC50 (Cyp40; IC50 Cyp40, Independent replicate 3): 1.4 ± 0.3 µM | IC50 (Cyp40; IC50 Cyp40, Independent replicate 4): 1.9 ± 0.5 µM | IC50 (Cyp40; Wild-Type Cyclophilin Prolyl Isomerase Inhibition IC50 Values, Cyp40, wild-type Cyp40): 1.8 µM | NKTR prolyl-isomerase raw dose-response reading (Fig. 6c) (NKTR; Dose 0.00457247 µM): 0.03021 and 0.03304 and 0.03422 | NKTR prolyl-isomerase raw dose-response reading (Fig. 6c) (NKTR; Dose 0.0137174 µM): 0.0282 and 0.04075 and 0.02833 | NKTR prolyl-isomerase raw dose-response reading (Fig. 6c) (NKTR; Dose 0.0411523 µM): 0.03114 and 0.03658 and 0.02835 | NKTR prolyl-isomerase raw dose-response reading (Fig. 6c) (NKTR; Dose 0.123457 µM): 0.03167 and 0.03382 and 0.0302 | NKTR prolyl-isomerase raw dose-response reading (Fig. 6c) (NKTR; Dose 0.37037 µM): 0.03191 and 0.03367 and 0.02844 | NKTR prolyl-isomerase raw dose-response reading (Fig. 6c) (NKTR; Dose 1.11111 µM): 0.03612 and 0.0297 and 0.03587 | NKTR prolyl-isomerase raw dose-response reading (Fig. 6c) (NKTR; Dose 3.33333 µM): 0.03487 and 0.03208 and 0.0346 | NKTR prolyl-isomerase raw dose-response reading (Fig. 6c) (NKTR; Dose 10 µM): 0.02874 and 0.02696 and 0.02891 | IC50 (NKTR; Independent replicate 1, read-out: IC50 NKTR): > 10 µM | IC50 (NKTR; Independent replicate 2, read-out: IC50 NKTR): ~30 µM | IC50 (NKTR; Independent replicate 3, read-out: IC50 NKTR): ~30 µM | IC50 (NKTR; Independent replicate 4, read-out: IC50 NKTR): ~40 µM | IC50 (NKTR; wild-type NKTR, read-out: Wild-Type Cyclophilin Prolyl Isomerase Inhibition IC50 Values, NKTR): 33 µM | CypB prolyl-isomerase raw dose-response reading (Fig. 6c) (CypB; Dose 0.00114312 µM): 0.06934 and 0.06783 and 0.08183 | CypB prolyl-isomerase raw dose-response reading (Fig. 6c) (CypB; Dose 0.00342936 µM): 0.07621 and 0.06975 and 0.07172 | CypB prolyl-isomerase raw dose-response reading (Fig. 6c) (CypB; Dose 0.0102881 µM): 0.07116 and 0.04746 and 0.08093 | CypB prolyl-isomerase raw dose-response reading (Fig. 6c) (CypB; Dose 0.0308642 µM): 0.07891 and 0.06745 and 0.0815 | CypB prolyl-isomerase raw dose-response reading (Fig. 6c) (CypB; Dose 0.0925926 µM): 0.06054 and 0.05873 and 0.07182 | CypB prolyl-isomerase raw dose-response reading (Fig. 6c) (CypB; Dose 0.277778 µM): 0.07925 and 0.05977 and 0.05725 | CypB prolyl-isomerase raw dose-response reading (Fig. 6c) (CypB; Dose 0.833333 µM): 0.07516 and 0.05333 and 0.06224 | CypB prolyl-isomerase raw dose-response reading (Fig. 6c) (CypB; Dose 2.5 µM): 0.05113 and 0.04833 and 0.05428 | IC50 (CypB; Independent replicate 1, read-out: IC50 CypB): ~3 µM | IC50 (CypB; Independent replicate 2, read-out: IC50 CypB): 7 ± 3 µM | IC50 (CypB; Independent replicate 3, read-out: IC50 CypB): 3 ± 1 µM | IC50 (CypB; Independent replicate 4, read-out: IC50 CypB): 3 ± 2 µM | IC50 (CypB; wild-type CypB, read-out: Wild-Type Cyclophilin Prolyl Isomerase Inhibition IC50 Values, CypB): 4 µM | CypG prolyl-isomerase raw dose-response reading (Fig. 6c) (CypG; Dose 0.00457247 µM): 0.04675 and 0.05256 and 0.06278 | CypG prolyl-isomerase raw dose-response reading (Fig. 6c) (CypG; Dose 0.0137174 µM): 0.05042 and 0.05542 and 0.04906 | CypG prolyl-isomerase raw dose-response reading (Fig. 6c) (CypG; Dose 0.0411523 µM): 0.05063 and 0.04839 and 0.04139 | CypG prolyl-isomerase raw dose-response reading (Fig. 6c) (CypG; Dose 0.123457 µM): 0.04982 and 0.05395 and 0.05565 | CypG prolyl-isomerase raw dose-response reading (Fig. 6c) (CypG; Dose 0.37037 µM): 0.04159 and 0.05179 and 0.03978 | CypG prolyl-isomerase raw dose-response reading (Fig. 6c) (CypG; Dose 1.11111 µM): 0.05731 and 0.0555 and 0.05308 | CypG prolyl-isomerase raw dose-response reading (Fig. 6c) (CypG; Dose 3.33333 µM): 0.04975 and 0.046 and 0.05109 | CypG prolyl-isomerase raw dose-response reading (Fig. 6c) (CypG; Dose 10 µM): 0.05239 and 0.04081 and 0.048 | IC50 (CypG; Independent replicate 1): > 10 µM | IC50 (CypG; Independent replicate 2): ~40 µM | IC50 (CypG; Independent replicate 3): ~26 µM | IC50 (CypG; Independent replicate 4): ~50 µM
